What was measured:
[1] = test system: SW480 human colon carcinoma cancer cells; experiment: SW480 colon carcinoma xenograft in SCID mice; type: in vivo, CB17 SCID/SCID female mice; settings: i.v. 10 mg/kg once a day for five days
Protocol: The resultant mice are a model for a human having colon carcinoma cancer.
The SW480 human colon carcinoma cancer cells were maintained in RPMI supplemented with 10% inactivated fetal bovine serum and 1% penicillin-streptomycin-L-Glutamine, under 5% CO2 at 37° C., and passaged twice a week. The cells were grown at a confluency lower than 70% and then collected with Trypsin (Bio-Whittaker, Md., USA). The cells were then centrifuged and washed twice using phosphate buffered saline solution (PBS) and resuspended in PBS at 1×10^6 cells per 100 μl. Viability was examined by staining with Trypan Blue and only flasks with cell viability of greater than 95% were used for in vivo studies.
SW480 cells were transplanted subcutaneously into the flank of female CB 17 SCID/SCID mice. Each mouse was inoculated with a suspension of 1×10^6 tumor cells per 100 μL on day zero. The following five treatment groups of ten mice each were used: (a) a negative control group treated with intravenous (i.v.) injection of vehicle, (b) a group treated with i.v. injection of a Compound 50, (c) a group treated with i.v. injection of a Compound 50a, (d) a group treated with i.v. injection of Compound 50b, (e) a group treated with i.v. injection of Compound 74a.
Treatment started on day twelve after SW480 cells transplantation and Compounds 50, 50a, 50b and 74a were administered i.v. once daily for five consecutive days at a dose of 10, 10, 10 and 50 mg/kg, respectively. Compound 50, 50a and 50b were prepared as a working solution of 1.5 mg/mL in a vehicle solution of 20% Cremaphor EL (Sigma, St. Louis, Miss., USA), and 10% Ethanol. Compound 74a was prepared as a working solution of 5 mg/mL in a vehicle solution of 5% Dextrose (Abbot Laboratories, QC, Canada). The negative control groups were treated with vehicle solution of 20% Cremaphor EL and 10% Ethanol alone.
(§1) The mice were weighed and the tumors measured on day 12 and every 2 to 3 days after treatment commenced. Observations continued for 23 days after initial tumor implantation. The changes in body weight and in the calculated tumor volume were plotted (FIGS. 9 and 10). Statistical analysis was performed using GraphPad Prism (GraphPad Software Inc., San Diego, Calif.). Two-way ANOVA was used to determine how the treatment affected tumor growth over time. Following the two-way ANOVA, post-tests were performed using the Benferroni method to determine the statistical difference between the mean tumor-size of the two groups being compared on every day that the tumors were measured.

[2] = type: in vivo, CB17 SCID/SCID female mice
Protocol: C33A cells were transplanted subcutaneously into the flank of female CB17 SCID/SCID mice. Each mouse was inoculated with a suspension of 2×10^6 tumor cells per 100 μL on day zero. The following six treatment groups of ten mice each were used: (a) a negative control group treated with intravenous (i.v.) injection of vehicle, (b) a negative control group treated with intraperitoneal (i.p.) injection of vehicle, (c) a positive control group treated with i.p. injection of Cisplatin, (d) a group treated with i.v. injection of a Compound 50, (e) a group treated with i.p. injection of Compound 50, and (f) a group treated with subcutaneous (s.c.) injection of Compound 50.
Treatment started on day thirteen after C33A cells transplantation for Compound 50 treated groups and on day fourteen for Cisplatin treated group. Compound 50 was administered i.v., i.p., and s.c. once daily for five consecutive days at a dose of 10, 15 and 30 mg/kg, respectively. Compound 50 was prepared as a working solution of 1.5 mg/mL in a vehicle solution of 20% Cremaphor EL (Sigma, St. Louis, Mo., USA), 10% Ethanol and 5% Dextrose (Abbot Laboratories, QC, Canada). The negative control groups were treated with vehicle alone. The positive control group was treated once every 3 days for fifteen days at a dose of 3.5 mg/kg. Cisplatin was formulated in PBS on each day of the injection and was administered i.p.
as §1, with “13” for “12”, “36” for “23”, “4” for “9”, “5).” for “10).”, “measured. […]” for “measured.”

COc1ccc2c(c1)C1(C)C=CC(=O)C(C)(C)C1=C(O)C2=O (racemic) [Compound 50]
Tumor growth compared to vehicle [1]: significant reduction (p<0.001) | Change in body weight ([2]; Compound 50 i.v., i.p. or s.c. 10, 15, 30 mg/kg once daily for five days): non-significant change in body weight | Animals died during the observation period ([2]; i.v. group of ten mice, four died in the i.v. vehicle group): two animals

Source: patent US7230139B2, “Diterpenoid compounds, compositions thereof and their use as anti-cancer or anti-fungal agents” (priority 2004, dated 2007)
